11 molecules from ChEMBL document CHEMBL1201862, “PubChem BioAssay data set” (2004) can be followed below.

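Five compound concentrations were applied to cells in 96-well plates for 48 hours; endpoints were derived by simple linear interpolation of the resulting dose-response curve. Abbreviation: GI50, concentration required for 50% inhibition of growth.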 Calls of active or inactive are those of the source. No stated cut-off is given here; in the data, active = GI50 up to about 1.1 µM and inactive = higher. A value given as a limit tells only on which side of the number the result lay.

Among the test systems are A498; BT-549; CCRF-CEM; HCT-116; HCT-15; HOP-92; IGROV-1; M14; MDA-MB-435; MDA-N; NCI-H460; OVCAR-3; OVCAR-5; OVCAR-8; SNB-75; SW-620; UACC-257; UO-31; SK-OV-3.
Assay in all cases: growth of human tumour cells (NCI), 48 h

As to `NNC(=O)CSc1nc2ccccc2c(=O)n1N`, the GI50 in the assay with A498 is > 100 µM (inactive); with BT-549 it was 42.1 µM (inactive); in the assay on CCRF-CEM, > 100 µM (inactive); in the assay on HCT-116, 31.6 µM (inactive); with HCT-15, more than 100 µM; in the assay with HOP-92 it was 22.5 µM (inactive). Moreover, the GI50 was > 100 µM (inactive) in the assay with IGROV-1; > 100 µM (inactive) in the assay with M14; > 100 µM (inactive) with MDA-MB-435; > 100 µM (inactive) in the assay on MDA-N; 57.1 µM (inactive) in the assay with NCI-H460; > 100 µM (inactive) with OVCAR-3. In addition, the GI50 in the assay with OVCAR-5 was > 100 µM (inactive); in the assay on OVCAR-8, 31.9 µM (inactive); with SNB-75 it was 13.5 µM (inactive); with SW-620, > 100 µM (inactive); in the assay on UACC-257, > 100 µM (inactive); in the assay on UO-31, > 100 µM (inactive).

In the case of `Cc1cc2c(O)c(c1)CN(CC(=O)O)Cc1cc(C)cc(c1O)CN(CC(=O)O)Cc1cc(C)cc(c1O)CN(CC(=O)O)C2`, the GI50 in the assay on A498 is > 100 µM (inactive); in the assay with BT-549, > 100 µM (inactive); in the assay on CCRF-CEM, > 100 µM (inactive); with HCT-116, > 100 µM (inactive); in the assay with HCT-15, more than 100 µM; in the assay on HOP-92, 64.4 µM (inactive). Further, the GI50 with M14, in the assay with MDA-MB-435, in the assay on MDA-N, with NCI-H460, with OVCAR-3 and with OVCAR-5 was > 100 µM (inactive) throughout. Further, the GI50 in the assay on OVCAR-8, in the assay with SK-OV-3, in the assay on SNB-75, in the assay with SW-620, in the assay with UACC-257 and in the assay with UO-31 was > 100 µM (inactive) each time.

Turning to `O=C(O)COc1c(Cl)cc(Cl)c(C(c2c(Cl)cc(Cl)c(OCC(=O)O)c2Cl)C(Cl)(Cl)Cl)c1Cl`, the GI50 in the assay with A498 was 35.7 µM (inactive); in the assay on BT-549 it was 23.1 µM (inactive); with HCT-116, 28.2 µM (inactive); in the assay with HCT-15 it was 26.4 µM; in the assay on HOP-92, 25.2 µM (inactive); with IGROV-1 it was 32.8 µM (inactive). Further, the GI50 in the assay on M14 was 20.7 µM (inactive); in the assay on MDA-MB-435, 23 µM (inactive); in the assay with MDA-N it was > 100 µM (inactive); in the assay with NCI-H460, 31.6 µM (inactive); in the assay on OVCAR-5, 29.3 µM (inactive); with OVCAR-8, 43.8 µM (inactive). In addition, the GI50 in the assay with SK-OV-3 was 20.9 µM (inactive); in the assay on SNB-75, 29.6 µM (inactive); in the assay with SW-620 it was 29.8 µM (inactive); with UACC-257, 26.2 µM (inactive); in the assay on UO-31 it was 23 µM (inactive).

With `O=c1cc(/N=N/c2ccc(O)cc2)[nH]c(=O)[nH]1`, the GI50 in the assay on A498 is > 100 µM (inactive); in the assay on BT-549 it was > 100 µM (inactive); with HCT-116, > 100 µM (inactive); with HCT-15, more than 100 µM; in the assay on HOP-92 it was 96.6 µM (inactive); in the assay with IGROV-1, > 100 µM (inactive). Further, the GI50 in the assay with M14 is > 100 µM (inactive); in the assay with MDA-MB-435 it was > 100 µM (inactive); with MDA-N, > 100 µM (inactive); in the assay on NCI-H460, > 100 µM (inactive); with OVCAR-3, 40.7 µM (inactive); in the assay on OVCAR-5, > 100 µM (inactive). The GI50 is > 100 µM (inactive) in the assay with OVCAR-8; > 100 µM (inactive) with SK-OV-3; 26.6 µM (inactive) in the assay on SNB-75; > 100 µM (inactive) with SW-620; 73.1 µM (inactive) with UACC-257; > 100 µM (inactive) in the assay on UO-31.

As to `NNC(=O)CC(=O)Nc1cccc(Cl)c1`, the GI50 with A498 was > 100 µM (inactive); in the assay with BT-549, > 100 µM (inactive); in the assay on CCRF-CEM, > 100 µM (inactive); with HCT-116, > 100 µM (inactive); in the assay with HCT-15 it was more than 100 µM; in the assay with HOP-92, 47.3 µM (inactive). Also, the GI50 with IGROV-1, with MDA-MB-435, in the assay on MDA-N, in the assay on NCI-H460, with OVCAR-3 and with OVCAR-5 was > 100 µM (inactive) throughout. Further, the GI50 was > 100 µM (inactive) in the assay with OVCAR-8; > 100 µM (inactive) in the assay with SK-OV-3; > 100 µM (inactive) in the assay on SNB-75; > 100 µM (inactive) in the assay on SW-620; 25.3 µM (inactive) in the assay on UACC-257; > 100 µM (inactive) in the assay on UO-31.

As for `CCOC(=O)/C=C/[C@@H](CC)O[Si](C(C)C)(C(C)C)C(C)C`, the GI50 in the assay on A498 is > 100 µM (inactive); in the assay on BT-549 it was > 100 µM (inactive); with CCRF-CEM, 42.2 µM (inactive); in the assay with HCT-116 it was > 100 µM (inactive); in the assay with HCT-15, more than 100 µM; in the assay on HOP-92, > 100 µM (inactive). Further, the GI50 in the assay with IGROV-1, with MDA-MB-435, with MDA-N, in the assay on NCI-H460, with OVCAR-3 and in the assay with OVCAR-5 was > 100 µM (inactive) throughout. Besides, the GI50 with OVCAR-8 was > 100 µM (inactive); in the assay with SK-OV-3, > 100 µM (inactive); in the assay with SNB-75 it was > 100 µM (inactive); in the assay with SW-620, > 100 µM (inactive); in the assay with UACC-257, 67.3 µM (inactive); with UO-31 it was > 100 µM (inactive).

Turning to `CC(=O)O[C@H]1CC[C@@]2(C)C(=CC[C@@H]3[C@@H]2CC[C@]2(C)C(=N/O)/C(=C/c4ccc([N+](=O)[O-])cc4)C[C@@H]32)C1`, the GI50 in the assay with A498 was 4.71 µM (inactive); with BT-549 it was 2.25 µM (inactive); with CCRF-CEM, 3.76 µM (inactive); in the assay on HCT-116, 3.97 µM (inactive); in the assay with HCT-15 it was 4.6 µM; in the assay with HOP-92, 11.9 µM (inactive). For the same molecule, the GI50 in the assay with IGROV-1 was 12.8 µM (inactive); in the assay on M14, 4.09 µM (inactive); in the assay with MDA-MB-435 it was 3.32 µM (inactive); in the assay on MDA-N, 3.37 µM (inactive); with NCI-H460, > 100 µM (inactive); in the assay with OVCAR-3 it was 2.47 µM (inactive). Further, the GI50 with SK-OV-3 is 11.9 µM (inactive); in the assay with SNB-75, 10 µM (inactive); with SW-620, 6.24 µM (inactive); in the assay on UACC-257 it was 0.0304 µM (active); with UO-31 it was 4.44 µM (inactive).

As to `O=c1ccn(CC2(CO)CCCC2)c(=O)[nH]1`, the GI50 in the assay on A498 was 7.64 µM (inactive); in the assay on BT-549, > 100 µM (inactive); in the assay on CCRF-CEM, > 100 µM (inactive); in the assay with HCT-116, > 100 µM (inactive); with HCT-15, more than 100 µM; in the assay with HOP-92, > 100 µM (inactive). Also, the GI50 in the assay on IGROV-1, with MDA-MB-435, in the assay on MDA-N, with NCI-H460, in the assay on OVCAR-3 and with OVCAR-5 was > 100 µM (inactive) each time. In addition, the GI50 in the assay on OVCAR-8, in the assay with SK-OV-3, in the assay with SNB-75, with SW-620, with UACC-257 and with UO-31 was > 100 µM (inactive) throughout.

In the case of `N#Cc1nc2ccccc2nc1N1CCN(c2ccc([N+](=O)[O-])cc2)CC1`, the GI50 is > 100 µM (inactive) in the assay on A498; > 100 µM (inactive) in the assay on BT-549; > 100 µM (inactive) in the assay on CCRF-CEM; > 100 µM (inactive) in the assay with HCT-116; more than 100 µM in the assay on HCT-15; > 100 µM (inactive) in the assay with HOP-92. The GI50 in the assay with IGROV-1, in the assay on M14, with MDA-MB-435, with MDA-N, in the assay with NCI-H460 and with OVCAR-5 was > 100 µM (inactive) throughout. Also, the GI50 in the assay with OVCAR-8, in the assay with SK-OV-3, in the assay on SNB-75, in the assay on SW-620, in the assay on UACC-257 and with UO-31 was > 100 µM (inactive) throughout.

For the molecule `COc1cc(-c2cc(=O)c3c(O)c(OC)c(OC)c(OC)c3o2)cc(OC)c1OC` [GARDENIN], the GI50 is 2.92 µM (inactive) in the assay with A498; 6.76 µM (inactive) in the assay on BT-549; > 100 µM (inactive) with CCRF-CEM; 4.5 µM (inactive) in the assay on HCT-116; more than 100 µM in the assay on HCT-15; 4.04 µM (inactive) in the assay on HOP-92. In addition, the GI50 with IGROV-1 is 68.4 µM (inactive); in the assay on M14, > 100 µM (inactive); with MDA-MB-435 it was > 100 µM (inactive); in the assay on MDA-N, > 92.7 µM (inactive); with NCI-H460 it was 5.01 µM (inactive); with OVCAR-3 it was 3.36 µM (inactive). The GI50 with OVCAR-5 was > 68.9 µM (inactive); with OVCAR-8, 4.57 µM (inactive); with SK-OV-3, 5.45 µM (inactive); in the assay on SNB-75 it was 2.23 µM (inactive); with UACC-257 it was > 100 µM (inactive); with UO-31 it was 7.36 µM (inactive).

In the case of `C[C@H](CCC(=O)O)[C@H]1CC[C@H]2[C@@H]3[C@@H](O)C[C@@H]4C[C@H](O)CC[C@]4(C)[C@H]3CC[C@]12C` [URSODIOL], the GI50 with A498 was > 100 µM (inactive); in the assay on BT-549, > 100 µM (inactive); in the assay on CCRF-CEM it was > 100 µM (inactive); in the assay with HCT-116 it was > 100 µM (inactive); with HCT-15, more than 100 µM; in the assay on HOP-92 it was > 100 µM (inactive). For the same molecule, the GI50 with IGROV-1, in the assay on M14, in the assay with MDA-MB-435, in the assay with MDA-N, in the assay with NCI-H460 and with OVCAR-5 was > 100 µM (inactive) in each case. The GI50 in the assay on OVCAR-8 is > 100 µM (inactive); with SNB-75, 99.1 µM (inactive); with SW-620, > 100 µM (inactive); in the assay on UACC-257, > 100 µM (inactive); in the assay on UO-31, 70 µM (inactive).
